Structures are written as SMILES.

The text below walks through data of patent US8697419B2, “Compositions and methods for culturing spirochetes” (Advanced Laboratory Services, Inc., priority 2011, dated 2014).

Format in all cases: cell-based
Assay [1] deals with Borrelia burgdorferi. Kind of assay: Effect of antibiotic concentration on spirochete growth in BSK-H medium, dark-field microscopy. The procedure:
(§1) The cells were cultured for 6 days with different concentration of rabbit serum, DTT and antibiotics, as depicted, and cellular growth was evaluated by direct cell counting of motile spirochetes using dark field microscopy. Each set of data represents three independent experiments (mean±SD). Statistical significance was determined using two-sample paired t-test. The data *p-values<0.05 indicates statistical significance as related to control.
To determine the effect of antibiotic concentration on spirochete growth, Borrelia burgdorferi were cultured in BSK-H medium containing 12% rabbit serum, 100 μg/ml DTT and one of the following antibiotics: 0.5 μg/ml rifampicin, 50 μg/ml rifampicin, a 5 μg/ml rifampicin disc (resulting in final concentration of 0.4 μg/ml), 50 μg/ml phosphomycin, 100 μg/ml phosphomycin, or the combination of 50 μg/ml rifampicin and 50 μg/ml phosphomycin. The spirochetes were incubated in a CO2 incubator at 34° C. with 5% CO2 and 100% humidity for 6 days, at which time spirochete growth was evaluated by dark-field microscopy. […] See, FIG. 2C.

Assay [2] concerns Borrelia burgdorferi. Description: Effect of magnesium concentration on spirochete growth in BSK-H medium. The note with it: 7.5×10^−2 M vs 7.5×10^−3 M MgCl2, 6% rabbit serum, 6 days, data not shown. The procedure:
To determine the effect of magnesium concentration on spirochete growth, Borrelia burgdorferi were cultured in BSK-H medium with 6% rabbit serum and either 7.5×10^−2 M MgCl2, or 7.5×10^−3 M MgCl2. The spirochetes were incubated in a CO2 incubator at 32° C. with 5% CO2 and 100% humidity for 6 days, at which time spirochete growth was evaluated by dark-field microscopy.

For assay [3], the system named is Borrelia burgdorferi. Description: Effect of DTT concentration on spirochete growth in BSK-H medium, dark-field microscopy. The procedure:
as §1
The effect of the addition of a reducing agent, such as DTT, to the culture media was also evaluated. To determine the effect of DTT concentration on spirochete growth, Borrelia burgdorferi were cultured in BSK-H medium with 6%, 12%, and 20% rabbit serum and either 0.145 μg/ml DTT or 100 μg/ml DTT. The spirochetes were incubated in a CO2 incubator at 34° C. with 5% CO2 and 100% humidity for 6 days, at which time spirochete growth was evaluated by dark-field microscopy. […] See, FIG. 2B. […] See, FIG. 2B, p=0.0002.

On to `C[C@@H]1O[C@@H]1P(=O)(O)O` [phosphomycin], for which the spirochete yield entry with Borrelia burgdorferi [1] (50 or 100 μg/ml phosphomycin, BSK-H, 12% rabbit serum, 100 μg/ml DTT, 6 days, 34° C.) is reported as “significantly decreased spirochete yield”. Further, in the assay with Borrelia burgdorferi [1] (lower concentrations of phosphomycin (e.g., 10 and 50 μg/ml), data not shown), the spirochete yields entry is recorded as “significantly decreased spirochete yields”.

In the case of `[Cl-].[Cl-].[Mg+2]` [MgCl2], the spirochete growth entry with Borrelia burgdorferi [2] is “No significant differences in spirochete growth”.

For the molecule `O[C@H](CS)[C@H](O)CS` (racemic) [DTT, dithiothreitol], the “spirochete yield, 100 μg/ml DTT relative to 0.145 μg/ml DTT” value in the assay with Borrelia burgdorferi [3] (BSK-H with 12% rabbit serum, p=0.0002) was “twice as many spirochetes”. For the same molecule, the spirochete yields entry with Borrelia burgdorferi [3] (DTT (0.145 or 100 μg/ml) included in BSK-H culture medium, 6 days) is “increased spirochete yields”.
